Laboratory results taken from patent US4808729A, “Leukotriene LTD4 and LTB4 antagonists” (G. D. Searle & Co., priority 1987, dated 1989).

Key:
[1] = biological target: T1, guinea pig ileum (LTD4-induced contraction) (Cavia porcellus, UniProt Q2NNR5); assay: LTD4 Antagonism in Guinea Pig Ileum; format: cell-based; conditions: pA2, Schild analysis
T1 construct: Fresh segments of guinea pig ileum; from tissue; host or cells: guinea pig ileum segments
T1 sequence (Q2NNR5 1-340): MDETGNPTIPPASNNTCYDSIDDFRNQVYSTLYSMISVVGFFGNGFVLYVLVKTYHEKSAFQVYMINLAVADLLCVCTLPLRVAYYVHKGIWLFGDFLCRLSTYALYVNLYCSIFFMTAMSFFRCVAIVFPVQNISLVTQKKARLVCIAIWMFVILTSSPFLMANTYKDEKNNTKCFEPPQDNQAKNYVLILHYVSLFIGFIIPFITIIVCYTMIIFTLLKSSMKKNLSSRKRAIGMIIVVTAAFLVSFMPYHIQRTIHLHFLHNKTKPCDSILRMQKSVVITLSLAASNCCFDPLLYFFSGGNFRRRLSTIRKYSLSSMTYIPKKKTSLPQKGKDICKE
Description: LTD4 Antagonism in Guinea Pig Ileum
Fresh segments of guinea pig ileum were suspended in 2 ml. tissue baths containing oxygenated modified Tyrodes solution. After an equilibration period, an agonist dose-response curve was generated by exposing each tissue to 4 different LTD4 doses and measuring the ensuing contractile heights. The ileum segments were washed and rested between exposures to agonist. Following this, the tissues were incubated with a single concentration of test compound and the agonist dose-response procedure was repeated. The dose ratio is a measure of the antagonist's ability to shift the agonist dose-response curve to the right. It is derived as the concentration of agonist necessary to reach a given response level in the presence (A') versus the absence (A) of antagonist. For example, if the test concentration of compound had no effect on the agonist-induced response (A'=A) the dose-ratio would approximate 1. […] One dose-ratio value is determined for each strip of ileum used to test antagonist. […] Schild analysis examines the linearity of the function described by the dose-ratios written as log [(A'/A)-1] versus antagonist concentration. If the linearity is […] and the slope approximates 1, inhibition is considered to be competitive. The pA2 is the negative log of the antagonist concentration required to produce a dose-ratio of 2. This value is considered to be a measure of the affinity of the competitive antagonist.

[2] = biological target: T2, guinea pig lung receptors (LTD4 receptor) (Cavia porcellus, UniProt Q2NNR5); assay: Leukotriene (LTD4) Receptor Binding Assay; conditions: LTD4 Antagonism; guinea pig lung membrane
T2 construct: guinea pig lung receptors, isolated from guinea pig lung membrane; from tissue; host or cells: guinea pig lung membrane
T2 sequence (Q2NNR5 1-340): T1 sequence (Q2NNR5 1-340)
Description: Leukotriene Receptor Binding Assay (12c01)
The in vitro LTD4 receptor binding assay is carried out as follows:
Specific binding of titrated LTD4 to a fixed number of guinea pig lung receptors, isolated from guinea pig lung membrane, is measured in the presence and absence of test compound. The initial screening dose (1×10^-5 M is considered active if the specific binding of LTD4 is reduced by 45% or more. Active compounds are tested in a dose-response manner to determine IC50 values.

[3] = tested on: LTD4 action on respiratory smooth muscle; assay: In Vivo Bronchoconstriction Assay (LTD4-induced); parameters: species or system guinea pig; conditions: LTD4 Antagonism, guinea pigs, 2000 units LTD4 IV
Description: The compounds are tested in vivo as follows. Adult male fasted Hartly guinea pigs weighing 300-350 g are pretreated with pyrilamine and indomethacin to block the bronchoconstricture effects of endogenous histamine and the synthesis of thromboxane A2 respectively. Compounds of the invention are administered IV or IG at approximate times prior to the IV administration of 2000 units of LTD4. Intratracheal pressure is monitored prior to and subsequent to LTD4 in animals anesthetized with pentobarbital and attached to a rodent respirator. Compounds which antagonize the direct component of LTD4 action on respiratory smooth muscle inhibit intratracheal insufflation pressure increases (P< or =0.05) caused by LTD4. FPL 55712 is used as a control.

LTB4 receptor = biological target: T3, LTB4 receptor (Homo sapiens, UniProt Q15722); assay: LTB4 Receptor Binding Assay (human neutrophils); conditions: LTB4 Antagonism, 0.6 nano M (3H) LTB4, 0° C., 45 minutes
T3 construct: Neutrophils were purified from venous blood of normal human donors; endogenous in cells; host or cells: human blood neutrophils
T3 sequence (Q15722 whole entry): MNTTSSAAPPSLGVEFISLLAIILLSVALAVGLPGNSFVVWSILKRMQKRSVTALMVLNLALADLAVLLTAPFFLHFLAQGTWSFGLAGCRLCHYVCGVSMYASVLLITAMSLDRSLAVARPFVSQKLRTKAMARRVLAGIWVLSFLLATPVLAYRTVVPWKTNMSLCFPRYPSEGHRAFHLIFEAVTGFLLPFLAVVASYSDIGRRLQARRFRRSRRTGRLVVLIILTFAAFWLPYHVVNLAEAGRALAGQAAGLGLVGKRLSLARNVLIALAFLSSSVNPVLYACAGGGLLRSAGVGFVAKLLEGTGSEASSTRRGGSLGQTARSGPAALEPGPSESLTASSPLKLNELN
Description: Preparation of Human Neutrophils
Neutrophils were purified from venous blood of normal human donors using standard techniques of dextran sedimentation, centrifugation on Histopaque sterile solution (Sigma) and hypotonic lysis of erythrocytes (Boyum, A., Isolation of Leukocytes from Human Blood: Further Observations. Scand. J. Lab. Clin. Invest. 21 (Suppl. 97): 31, 1968). The purity of isolated neutrophils was ≥95%.
LTB4 Receptor Binding Assay
Neutrophils (4-6×10^6) in 1 ml Hanks' balanced salt solution containing 10 mM HEPES buffer (HBSS), pH 7.4 and […] nordihydroguaiaretic acid were incubated with 0.6 nano M (^3 H) LTB4 in the presence or absence of test compounds. The incubation was carried out at 0° C. for 45 minutes and terminated by adding 5 ml of ice-cold HBSS followed by rapid filtration of incubation mixture under vacuum through GF/C glass fiber filters. The filters were further washed with 10 ml HBSS and radioactivity was determined. Specific binding was defined as the difference between total binding and nonspecific binding which was not displaced by 10^-7 M unlabeled LTB4. All data refer to specific binding.

Row | SMILES | Kb [1] | IC50 [2] | IC50 (LTB4 receptor) | In Vivo Bronchoconstriction Assay (% Inhibition at 5 mpk. IV) [3]
1 | CCCc1c(OCCCSCC2CSC(C)(CCC(=O)O)S2)ccc(C(C)=O)c1O (stereo not drawn) [Example 50, 4-[[[3-(4-Acetyl-3-hydroxy-2-propylphenoxy)propyl]thio]methyl]-2-methyl-1,3-dithiolane-2-propanoic acid] | 0.0145 µM | 9.47 µM | – | 91.2%
2 | CCCc1c(OCCCSCC2COC(C)(CCC(=O)O)S2)ccc(C(C)=O)c1O (stereo not drawn) [Example 38, 4-[[[3-(4-Acetyl-3-hydroxy-2-propylphenoxy)propyl]thio]methyl]-2-methyl-1,3-oxathiolane-2-propanoic acid] | 0.0145 µM | 9.37 µM | – | 87.2%
3 | CCCc1c(OCCCSCC2COC(CCC(=O)O)(CCC(=O)O)S2)ccc(C(C)=O)c1O (stereo not drawn) [Example 3, 4-[[[3-(4-Acetyl-3-hydroxy-2-propylphenoxy)propyl]thio]methyl]-1,3-oxathiolane-2,2-dipropanoic acid] | 0.0214 µM | 3.56 µM | – | 96.9%
4 | CCCc1c(OCCCSCC2CSC(CCC(=O)O)(CCC(=O)O)S2)ccc(C(C)=O)c1O (stereo not drawn) [Example 35, 4-[[[3-(4-Acetyl-3-hydroxy-2-propylphenoxy)propyl]thio]methyl]-1,3-dithiolane-2,2-dipropanoic acid] | 0.00891 µM | 0.591 µM | – | 93%

Further lines, with some results ahead:

Row | Kb [1] | IC50 [2] | IC50 (LTB4 receptor) | SMILES | In Vivo Bronchoconstriction Assay (% Inhibition at 5 mpk. IV) [3]
5 | – | – | 0.06 µM | CCCc1c(OCCCSCC2CSC(C)(CCCC(=O)O)S2)ccc(C(C)=O)c1OC (stereo not drawn) [Example 81, 4-[[[3-(4-Acetyl-3-methoxy-2-propylphenoxy)propyl]thio]methyl]-2-methyl-1,3-dithiolane-2-butanoic acid] | –
6 | 0.00955 µM | 5.02 µM | – | CCCc1c(OCCCSCC2CSC(C)(CCCC(=O)O)S2)ccc(C(C)=O)c1O (stereo not drawn) [Example 61, 4-[[[3-(4-Acetyl-3-hydroxy-2-propylphenoxy)propyl]thio]methyl]-2-methyl-1,3-dithiolane-2-butanoic acid] | 95.6%
7 | 0.0269 µM | 6.24 µM | – | CCCc1c(OCCCSCC2COC(CCC(=O)O)(c3ccccc3)S2)ccc(C(C)=O)c1O (stereo not drawn) [Example 70, 4-[[[3-(4-Acetyl-3-hydroxy-2-propylphenoxyl]propyl]thio]methyl]-2-phenyl-1,3-oxathiolane-2-propanoic acid] | 59.2%
8 | – | 7.1 µM | – | CCCc1c(OCCCSCC2COC(C)(CCCC(=O)O)S2)ccc(C(C)=O)c1O (stereo not drawn) [Example 84] | 85.1%
